According to patent US20170190671A1, “BIS(ARYL)CATECHOL DERIVATIVES AS HERBICIDES” (E I DU PONT DE NEMOURS AND COMPANY, priority 2014, published 2017):

Legend:
Test in all cases: Test C preemergence
Type in all cases: in vivo
[1] = tested on: blackgrass (Alopecurus myosuroides); conditions: Alopecurus myosuroides, pre-emergence, 336 h, scale 0 to 100, read-out: Plant response rating, Blackgrass
How it was run: (§1)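 Treatment is preemergence to seeds in a loam and sand soil, or postemergence to plants 2 to 18 cm high in a peat moss-based medium. The compound is delivered in a non-phytotoxic solvent mixture including surfactant. Effects are judged by eye 13 to 15 days later on a 0 to 100 scale.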

[2] = tested on: large (Lg) crabgrass (Digitaria sanguinalis); conditions: Digitaria sanguinalis, pre-emergence, 336 h, scale 0 to 100, read-out: Plant response rating, Crabgrass, Large
How it was run: as §1

[3] = tested on: oilseed rape (Brassica napus); conditions: Brassica napus, pre-emergence, scale 0 to 100, read-out: Plant response rating, Oilseed Rape
How it was run: as §1

[4] = tested on: barnyardgrass (Echinochloa crus-galli); conditions: Echinochloa crus-galli, pre-emergence, read-out: Plant response rating, Barnyardgrass
How it was run: as §1

corn (Zea mays) = conditions: Zea mays, pre-emergence, 336 h, scale 0 to 100
How it was run: as §1

[5] = tested on: Italian ryegrass (Lolium multiflorum); conditions: Lolium multiflorum, pre-emergence, 336 h, scale 0 to 100, read-out: Plant response rating, Ryegrass, Italian
How it was run: as §1

[6] = tested on: ragweed (common ragweed, Ambrosia elatior); conditions: Ambrosia artemisiifolia, pre-emergence, 336 h, scale 0 to 100, read-out: Plant response rating, Ragweed
How it was run: as §1

[7] = tested on: winter wheat (Triticum aestivum); conditions: Triticum aestivum, pre-emergence, 336 h, scale 0 to 100, read-out: Plant response rating, Wheat
How it was run: as §1

[8] = tested on: velvetleaf (Abutilon theophrasti); conditions: Abutilon theophrasti, pre-emergence, scale 0 to 100, read-out: Plant response rating, Velvetleaf
How it was run: as §1

soybean (Glycine max) = conditions: Glycine max, pre-emergence, scale 0 to 100, read-out: Plant response rating, Soybean
How it was run: as §1

[9] = tested on: giant foxtail (Setaria faberii); conditions: Setaria faberi, pre-emergence, 336 h, scale 0 to 100, read-out: Plant response rating, Foxtail, Giant
How it was run: as §1

[10] = tested on: lambsquarters (Chenopodium album); conditions: Chenopodium album, pre-emergence, 336 h, scale 0 to 100, read-out: Plant response rating, Lambsquarters
How it was run: as §1

[11] = tested on: galium (catchweed bedstraw, Galium aparine); conditions: Galium, pre-emergence, 336 h, scale 0 to 100, read-out: Plant response rating, Galium
How it was run: as §1

[12] = tested on: waterhemp (common waterhemp, Amaranthus rudis); conditions: Amaranthus tuberculatus, pre-emergence, scale 0 to 100, read-out: Plant response rating, Waterhemp
How it was run: as §1

[13] = tested on: yellow nutsedge (Cyperus esculentus); conditions: Cyperus, pre-emergence, 336 h, scale 0 to 100, read-out: Plant response rating, Nutsedge, Yellow
How it was run: as §1

`Fc1ccc(F)c(Oc2ncc(Cl)cn2)c1Oc1ncc(Cl)cn1` [Compound 34, 2,2′-[(3,6-difluoro-1,2-phenylene)bis(oxy)]bis[5-chloropyrimidine]] was tested, and the pest or weed control at 31 g/ha ([1]; 31 g ai/ha, preemergence) was 0%, the pest or weed control at 62 g/ha ([1]; 62 g ai/ha, preemergence) was 60% and the pest or weed control at 125 g/ha ([1]; 125 g ai/ha, preemergence) was 70%. It also gave a pest or weed control at 16 g/ha ([1]; Preemergence, 16 g ai/ha) of 0%, a pest or weed control at 31 g/ha ([2]; 31 g ai/ha, preemergence) of 85% and a pest or weed control at 62 g/ha ([2]; 62 g ai/ha, preemergence) of 98%. For the same molecule, the pest or weed control at 125 g/ha ([2]; 125 g ai/ha, preemergence) was 100%, the pest or weed control at 16 g/ha ([2]; Preemergence, 16 g ai/ha) was 80% and the plant injury at 31 g/ha ([3]; 31 g ai/ha, preemergence) was 90%. For the same molecule, the plant injury at 62 g/ha ([3]; 62 g ai/ha, preemergence) was 90%, the plant injury at 125 g/ha ([3]; 125 g ai/ha, preemergence) was 90% and the plant injury at 16 g/ha ([3]; Preemergence, 16 g ai/ha) was 30%. It also gave a pest or weed control at 31 g/ha ([4]; 31 g ai/ha, preemergence, scale 0 to 100) of 55%, a pest or weed control at 62 g/ha ([4]; 62 g ai/ha, preemergence, scale 0 to 100) of 85% and a pest or weed control at 125 g/ha ([4]; 125 g ai/ha, preemergence, scale 0 to 100) of 98%. The pest or weed control at 16 g/ha ([4]; Preemergence, 16 g ai/ha, scale 0 to 100 (0 no effect, 100 complete control)) was 20%, the Corn plant response rating (crop injury, 0 = no effect, 100 = complete kill) at 31 g/ha (corn (Zea mays); 31 g ai/ha, preemergence) was 5% and the Corn plant response rating (crop injury, 0 = no effect, 100 = complete kill) at 62 g/ha (corn (Zea mays); 62 g ai/ha, preemergence) was 20%. For the same molecule, the Corn plant response rating (crop injury, 0 = no effect, 100 = complete kill) at 125 g/ha (corn (Zea mays); 125 g ai/ha, preemergence) was 40%, the Corn plant response rating (crop injury, 0 = no effect, 100 = complete kill) at 16 g/ha (corn (Zea mays); Preemergence, 16 g ai/ha) was 0% and the pest or weed control at 31 g/ha ([5]; 31 g ai/ha, preemergence) was 5%. For the same molecule, the pest or weed control at 62 g/ha ([5]; 62 g ai/ha, preemergence) was 10%, the pest or weed control at 125 g/ha ([5]; 125 g ai/ha, preemergence) was 35% and the pest or weed control at 16 g/ha ([5]; Preemergence, 16 g ai/ha) was 0%. The pest or weed control at 31 g/ha ([6]; 31 g ai/ha, preemergence) was 0%, the pest or weed control at 62 g/ha ([6]; 62 g ai/ha, preemergence) was 25% and the pest or weed control at 125 g/ha ([6]; 125 g ai/ha, preemergence) was 40%. It also gave a pest or weed control at 16 g/ha ([6]; Preemergence, 16 g ai/ha) of 0%, a plant injury at 31 g/ha ([7]; 31 g ai/ha, preemergence) of 0% and a plant injury at 62 g/ha ([7]; 62 g ai/ha, preemergence) of 15%. It also gave a plant injury at 125 g/ha ([7]; 125 g ai/ha, preemergence) of 10%, a plant injury at 16 g/ha ([7]; Preemergence, 16 g ai/ha) of 0% and a pest or weed control at 31 g/ha ([8]; 31 g ai/ha, preemergence) of 45%. For the same molecule, the pest or weed control at 62 g/ha ([8]; 62 g ai/ha, preemergence) was 70%, the pest or weed control at 125 g/ha ([8]; 125 g ai/ha, preemergence) was 80% and the pest or weed control at 16 g/ha ([8]; Preemergence, 16 g ai/ha) was 35%. It also gave a plant injury at 31 g/ha (soybean (Glycine max); 31 g ai/ha, preemergence) of 20%, a plant injury at 62 g/ha (soybean (Glycine max); 62 g ai/ha, preemergence) of 45% and a plant injury at 125 g/ha (soybean (Glycine max); 125 g ai/ha, preemergence) of 55%. For the same molecule, the plant injury at 16 g/ha (soybean (Glycine max); Preemergence, 16 g ai/ha) was 5%, the pest or weed control at 31 g/ha ([9]; 31 g ai/ha, preemergence) was 98% and the pest or weed control at 62 g/ha ([9]; 62 g ai/ha, preemergence) was 100%. The pest or weed control at 125 g/ha ([9]; 125 g ai/ha, preemergence) was 100%, the pest or weed control at 16 g/ha ([9]; Preemergence, 16 g ai/ha) was 70% and the pest or weed control at 31 g/ha ([10]; 31 g ai/ha, preemergence) was 90%. The pest or weed control at 62 g/ha ([10]; 62 g ai/ha, preemergence) was 100%, the pest or weed control at 125 g/ha ([10]; 125 g ai/ha, preemergence) was 98% and the pest or weed control at 16 g/ha ([10]; Preemergence, 16 g ai/ha) was 80%. For the same molecule, the pest or weed control at 31 g/ha ([11]; 31 g ai/ha, preemergence) was 95%, the pest or weed control at 62 g/ha ([11]; 62 g ai/ha, preemergence) was 95% and the pest or weed control at 125 g/ha ([11]; 125 g ai/ha, preemergence) was 98%. The pest or weed control at 16 g/ha ([11]; Preemergence, 16 g ai/ha) was 90%, the pest or weed control at 31 g/ha ([12]; 31 g ai/ha, preemergence) was 100% and the pest or weed control at 62 g/ha ([12]; 62 g ai/ha, preemergence) was 100%. For the same molecule, the pest or weed control at 125 g/ha ([12]; 125 g ai/ha, preemergence) was 100%, the pest or weed control at 16 g/ha ([12]; Preemergence, 16 g ai/ha) was 100% and the pest or weed control at 31 g/ha ([13]; 31 g ai/ha, preemergence) was 0%. For the same molecule, the pest or weed control at 62 g/ha ([13]; 62 g ai/ha, preemergence) was 0%, the pest or weed control at 125 g/ha ([13]; 125 g ai/ha, preemergence) was 5% and the pest or weed control at 16 g/ha ([13]; Preemergence, 16 g ai/ha) was 0%.
